According to US8399712B2 (priority 2010, dated 2013):
Each block holds one compound with its values, some of them ahead of it.

Legend:
[1] = Relative humidity stability, saturated salt solutions at ambient temperature, XRPD; format: physicochemical; details: for Dissociation by XRPD: 75, 94, or 98% RH after four weeks
From the text: Upon completion of the duration allowed, the samples were immediately analyzed by XRPD.

[2] = Slurrying in water, resulting solid form; format: physicochemical; details: for Behaviour upon slurrying in water: three days
hyperglycemic rats = details: cited from earlier work
[3] = literature (Lopez-Nicolas 2009); cited from earlier work
[4] = literature; cited from earlier work
cancer cell lines = details: in vitro; cited from earlier work
[5] = format: physicochemical; details: slurrying in water at ambient, after 5 minutes
[6] = Attempted intrinsic dissolution of cocrystal 3 in 900 mL water; format: physicochemical; details: 900 mL water at ambient conditions, after 30 minutes
Description: Intrinsic dissolution in 900 mL water at ambient conditions was also attempted. […] Therefore, a concentration vs. time and intrinsic dissolution rate value were unobtainable at these conditions.

Compound: Cn1c(=O)c2c(ncn2C)n(C)c1=O [caffeine, reference compound]
Results (form by XRPD) ([1]; 75% RH, 1 week): caffeine anhydrous
Results (form by XRPD) ([1]; 75% RH, 4 weeks): caffeine anhydrous
Results (form by XRPD) ([1]; 75% RH, 1 day): caffeine anhydrous
Results (form by XRPD) ([1]; 75% RH, 3 days): caffeine anhydrous
Conversion to hydrate ([1]; 75% RH, up to four weeks): does not display signs of conversion
Conversion to hydrate ([1]; 94% RH): between one and three days at 94% RH partial conversion
Results (form by XRPD) ([1]; 94% RH, 1 week (7 days)): caffeine hydrate
Results (form by XRPD) ([1]; 94% RH, 4 weeks): caffeine hydrate
Results (form by XRPD) ([1]; 94% RH, 1 day): caffeine anhydrous
Results (form by XRPD) ([1]; 94% RH, 3 days): caffeine anhydrous/caffeine hydrate
Conversion to hydrate ([1]; 98% RH): converts to caffeine hydrate in less than one day
Results (form by XRPD) ([1]; 98% RH, 1 week): caffeine hydrate
Results (form by XRPD) ([1]; 98% RH, 4 weeks): caffeine hydrate
Results (form by XRPD) ([1]; 98% RH, 1 day): caffeine hydrate
Results (form by XRPD) ([1]; 98% RH, 3 days): caffeine hydrate

Compound: COc1cc(/C=C/c2ccc(O)cc2)cc(OC)c1.Cn1c(=O)c2c(ncn2C)n(C)c1=O [cocrystal 1 (Form I), pterostilbene:caffeine]
Results (form by XRPD) ([1]; 75% RH, 1 week): cocrystal 1 (Form I), no caffeine hydrate
Results (form by XRPD) ([1]; 75% RH, 1 week, additional stress at 98% RH): cocrystal 1 (Form I), no caffeine hydrate
Results (form by XRPD) ([1]; 75% RH, 4 weeks): cocrystal 1 (Form I), no caffeine hydrate
Results (form by XRPD) ([1]; 75% RH, 1 day): cocrystal 1 (Form I), no caffeine hydrate
Results (form by XRPD) ([1]; 75% RH, 1 day, additional stress at 98% RH): cocrystal 1 (Form I), no caffeine hydrate
Results (form by XRPD) ([1]; 75% RH, 3 days): cocrystal 1 (Form I), no caffeine hydrate
Results (form by XRPD) ([1]; 94% RH, 1 week (7 days)): cocrystal 1 (Form I), no caffeine hydrate
Results (form by XRPD) ([1]; 94% RH, 4 weeks): cocrystal 1 (Form I), no caffeine hydrate
Results (form by XRPD) ([1]; 94% RH, 1 day): cocrystal 1 (Form I), no caffeine hydrate
Results (form by XRPD) ([1]; 94% RH, 3 days): cocrystal 1 (Form I), no caffeine hydrate
Results (form by XRPD) ([1]; 94% RH, 7 days, additional stress at 98% RH, 4 weeks): cocrystal 1 (Form I), no caffeine hydrate
Results (form after stress) ([2]; slurry, 2 days): cocrystal 1 (Form I), no caffeine hydrate
Behaviour upon slurrying in water [2]: precipitation of pterostilbene

Compound: COc1cc(/C=C/c2ccc(O)cc2)cc(OC)c1.Cn1c(=O)c2c(ncn2C)n(C)c1=O [cocrystal 1, pterostilbene:caffeine]
Dissociation by XRPD [1]: no dissociation

Compound: CN(C)C(=N)N=C(N)N [metformin]
Decrease of plasma glucose levels (hyperglycemic rats): 48%

Compound: COc1cc(/C=C/c2ccc(O)cc2)cc(OC)c1 [pterostilbene, trans-3,5-dimethoxy-4′-hydroxystilbene]
Solubility in water [3]: poor solubility in water
Bioavailability [4]: poor bioavailability
Cytotoxic activity against cancer cell lines (cancer cell lines): demonstrated cytotoxic activity

Results (form by XRPD) ([1]; 75% RH, 1 week): cocrystal 2, no carbamazepine dihydrate
Results (form by XRPD) ([1]; 75% RH, 4 weeks): cocrystal 2, no carbamazepine dihydrate
Results (form by XRPD) ([1]; 75% RH, 1 day): cocrystal 2, no carbamazepine dihydrate
Results (form by XRPD) ([1]; 75% RH, 3 days): cocrystal 2, no carbamazepine dihydrate
Results (form by XRPD) ([1]; 94% RH, 1 week (7 days)): cocrystal 2, no carbamazepine dihydrate
Results (form by XRPD) ([1]; 94% RH, 4 weeks): cocrystal 2, no carbamazepine dihydrate
Results (form by XRPD) ([1]; 94% RH, 1 day): cocrystal 2, no carbamazepine dihydrate
Results (form by XRPD) ([1]; 94% RH, 3 days): cocrystal 2, no carbamazepine dihydrate
Results (form by XRPD) ([1]; 98% RH, 1 week): cocrystal 2, no carbamazepine dihydrate
Results (form by XRPD) ([1]; 98% RH, 4 weeks): cocrystal 2, no carbamazepine dihydrate
Results (form by XRPD) ([1]; 98% RH, 1 day): cocrystal 2, no carbamazepine dihydrate
Results (form by XRPD) ([1]; 98% RH, 3 days): cocrystal 2, no carbamazepine dihydrate
Behaviour upon slurrying in water [2]: stable
Compound: pterostilbene:carbamazepine [cocrystal 2]

XRPD result of attempted powder dissolution [5]: crystalline pterostilbene
XRPD result of attempted intrinsic dissolution [6]: crystalline pterostilbene
Dissociation by XRPD [1]: no dissociation
Compound: pterostilbene:glutaric acid [cocrystal 3]
